Measurements reported in PMC6207684, “Structural reorganization of SHP2 by oncogenic mutations and implications for oncoprotein resistance to allosteric inhibition” (Nature Communications, 2018).

What was measured:
PTPN11-null U2OS cells = experiment: Western blot pErk quantification; type: cell-based; details: 2 h treatment
From the text: (§1) PTPN11−/−/− U2OS cells were generated using the methodology described by Zhang et al.[25]. In brief, CRISPR guides against the first three exons of the PTPN11 proto-oncogene were designed using the Sanger CRISPR database, cloned into the pSpCas9(BB)-2A-GFP vector, transfected into U2OS (ATCC® HTB-96^TM) cells using manufacturer-recommended Fugene®HD methodologies, and assayed for knockdown of SHP2 protein levels, via western blot, in bulk.
Lysis was visually confirmed with light microscopy, and lysates were added to gel loading buffer and run on Novex^TM wedgewell^TM 12% Tris-Glycine gels (Invitrogen XP00122) at 180 V for 1 h. Proteins were transferred from gels to polyvinylidene difluoride membranes using an iBlot 2 Dry Blotting System (Thermo Fisher IB21001). […] Linear brightness and contrast adjustments were applied uniformly across the entire image, and band densities were quantified using Fiji[24]. […]

U2OS cells = experiment: pERK induction by EGF stimulation in serum-starved U2OS cells, western blot; type: cell-based; details: U2OS serum starved 48 hours; SHP099 10 µM for 2 hours; EGF 5 nM; lysed 10 min after stimulation
Procedure: or vehicle cont rol f or 2 hours, and t hen st imulat ed wit h EGF. Cells were lysed on ice 10 min
af t er st imulat ion, and pErklevels were analyzed by western blot. […]

wild-type U2OS cells = experiment: Western blot pErk quantification; type: cell-based
Procedure: (§2) Lysis was visually confirmed with light microscopy, and lysates were added to gel loading buffer and run on Novex^TM wedgewell^TM 12% Tris-Glycine gels (Invitrogen XP00122) at 180 V for 1 h. Proteins were transferred from gels to polyvinylidene difluoride membranes using an iBlot 2 Dry Blotting System (Thermo Fisher IB21001). After transfer, membranes were blocked with either 5% bovine serum albumin or 5% nonfat milk in tris-buffered saline with tween (TBST) at room temperature for 1 h and then incubated with primary antibody (CST 9101 pErk at 1:500 dilution, CST 9102 Erk at 1:500 dilution, CST 3752 SHP2 at 1:300 dilution, or Sigma A1978 β-Actin at 1:3000 dilution) in respective blocking solution overnight at 4 °C, washed 3 × with TBST for 5 min, incubated with secondary antibody (ECL^TM Anti-Rabbit GE NA934V or Anti-Mouse GE NXA931V at 1:10,000 dilution) in respective blocking solution for 1 h at room temperature, and washed 3 x with TBST for 5 min. Following final wash, membranes were imaged on a GE Amersham Imager 600 using SuperSignal® West Pico Chemiluminescent Substrate (Pierce 34080). Linear brightness and contrast adjustments were applied uniformly across the entire image, and band densities were quantified using Fiji[24]. Western blot images are representative of at least two replicates, which were performed on different days.

wild-type SHP2 = test system: wild-type SHP2; parameters: method as in PMID 27362227; details: biochemical assays; cited from earlier work
[1] = test system: PTPN11-null U2OS cells re-expressing SHP2^WT; experiment: Western blot pErk quantification; type: cell-based
From the text: as §1
(§3) Mammalian SHP2 expression plasmids were designed from pCMV-SHP2 WT, which was provided as a gift from Ben Neel (Addgene plasmid #8381), using site-directed mutagenesis (QuikChange, Agilent; see Supplementary Table 4 for the sequences of all primers used in this study). Mutation acquisition and plasmid identity were confirmed via DNA sequencing.
as §2

[2] = test system: PTPN11-null U2OS cells expressing SHP2^F285S; experiment: Western blot pErk quantification; type: cell-based; details: read-out: IC50 for pErk reduction by SHP099; PTPN11-null U2OS cells harboring SHP2^F285S; 2 h treatment
From the text: as §1, §3, §2

[3] = test system: PTPN11-null U2OS cells expressing SHP2^S502P; experiment: Western blot pErk quantification; type: cell-based; details: SHP2^S502P in PTPN11-null U2OS cells; 50 μM SHP099
From the text: as §1, §3, §2

[4] = test system: PTPN11-null U2OS cells expressing SHP2^E76K; experiment: Western blot pErk quantification; type: cell-based; details: SHP2^E76K in PTPN11-null U2OS cells (other cancer mutants investigated)
From the text: as §1, §3, §2

[5] = test system: PTPN11-null U2OS cells expressing SHP2^D61V; experiment: Western blot pErk quantification; type: cell-based; details: SHP2^D61V in PTPN11-null U2OS cells (other cancer mutants investigated)
From the text: as §1, §3, §2

[6] = test system: PTPN11-null U2OS cells expressing SHP2^G60V; experiment: Western blot pErk quantification; type: cell-based; details: SHP2^G60V in PTPN11-null U2OS cells (other cancer mutants investigated)
From the text: as §1, §3, §2

[7] = test system: cancer cell lines that are dependent on receptor tyrosine kinases and wild-type SHP2; parameters: method as in PMID 27362227; details: cited from earlier work

IC50 (wild-type U2OS cells; read-out: IC50 for pErk reduction by SHP099, 2 h treatment, western blot densitometry): 2000 ± 1000 nM
IC50 ([1]; read-out: IC50 for pErk reduction by SHP099, PTPN11-null cells re-expressing SHP2^WT, 2 h treatment, western blot densitometry): 4 ± 2 µM
IC50 [2]: 8 ± 2 µM
SMILES: CC1(N)CCN(c2cnc(-c3cccc(Cl)c3Cl)c(N)n2)CC1 [SHP099]
pErk levels upon SHP099 treatment (western blot) (PTPN11-null U2OS cells): unaffected
pERK induction in response to EGF stimulation (U2OS cells): attenuated
pErk levels upon SHP099 treatment (western blot) (wild-type U2OS cells; 2 h treatment): dramatically reduces pErk levels
affinity for wild-type SHP2 (wild-type SHP2): nanomolar affinity
reduction of pErk levels by SHP099 (incomplete, maximal) ([1]; SHP2^WT-rescued PTPN11-null U2OS cells): ~ 65%
loss of pErk [3]: little, if any, loss of pErk
inhibition of Erk phosphorylation [4]: does not significantly inhibit Erk phosphorylation
inhibition of Erk phosphorylation [5]: does not significantly inhibit Erk phosphorylation
inhibition of Erk phosphorylation [6]: does not significantly inhibit Erk phosphorylation
antiproliferative activity [7]: antiproliferative activity
